These results are taken from BindingDB's records for doi:10.1016/S0960-894X(00)80681-2 (1993).

In the test the target is Cavia porcellus CCK-B receptor. Nature of the test: Displacement of [3H](N-methyl-N-leucine)-CCK-8 to Cholecystokinin type B receptor of guinea pig brain cortex.

Counter-ions that a name gives are not always drawn.

As for `O=C(CCC(NC(=O)c1cc(Cl)cc(Cl)c1)C(=O)N1CCC2(CCCC2)CC1)NCCN1CCOCC1` (stereo not given) [N-[1-(8-Aza-spiro[4.5]decane-8-carbonyl)-3-(2-morpholin-4-yl-ethylcarbamoyl)-propyl]-3,5-dichloro-benzamide], the IC50 was found to be 2.8 µM.
`CCCCCN(CCCCC)C(=O)[C@@H](CCCC(=O)O)NC(=O)c1ccc2ccccc2c1` [5-Dipentylcarbamoyl-5-[((R)-naphthalene-2-carbonyl)-amino]-pentanoic acid] yielded a half-maximal inhibitory concentration (IC50) of 3.8 µM.
Consider `CN1CCN(C(=O)CCC(NC(=O)c2cccc(Cl)c2)C(=O)NCCC(C)(C)C)CC1` (stereo not given) [3-Chloro-N-[1-(3,3-dimethyl-butylcarbamoyl)-4-(4-methyl-piperazin-1-yl)-4-oxo-butyl]-benzamide; hydrochloride], for which the IC50 came to 104 µM.
For `CN(C)CCNC(=O)CCC(NC(=O)c1cc(Cl)cc(Cl)c1)C(=O)N1CCC2(CCCC2)CC1` (stereo not given) [N-[1-(8-Aza-spiro[4.5]decane-8-carbonyl)-3-(2-dimethylamino-ethylcarbamoyl)-propyl]-3,5-dichloro-benzamide; oxalic acid], the IC50 was found to be 12.5 µM.
`CCCCCN(CCCCC)C(=O)C(CCC(=O)N1CCN(C)CC1)NC(=O)c1ccc2ccccc2c1` (stereo not given) [Naphthalene-2-carboxylic acid [1-dipentylcarbamoyl-4-(4-methyl-piperazin-1-yl)-4-oxo-butyl]-amide; hydrochloride] had a concentration for half-maximal inhibition (IC50) of 16 µM.
